Laboratory results as given in PubChem BioAssay AID248 (DTP/NCI, 2004).
Several values for one entry are separate records, joined by “and”; a condition that tells them apart may be missing. Identical values can stand only once. Inconclusive results and toxic doses are left out. Cut-off read from the data, not from the text of the source: active = T/C of 150% or more; inactive = T/C below 125%.

Test system: L1210 leukemia ip in BDF1 mice, survival T/C
Test: NCI In Vivo Anticancer Drug Screen. Data for tumor model L1210 Leukemia (intraperitoneal) in B6D2F1 (BDF1) mice
Conditions: endpoint: mean survival time, higher = longer survival
How it was run: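 Transplantable tumor model; survival measured in treated vs vehicle control mice. Value = treated/control.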

[1] = dose: 100.0 mg/kg/injection, schedule: Q01DX001 (ip), vehicle: saline
[2] = dose: 100.0 mg/kg/injection, schedule: Q04DX002 (ip), vehicle: saline
[3] = dose: 100.0 mg/kg/injection, schedule: Q04DX003 (ip), vehicle: saline
[4] = dose: 200.0 mg/kg/injection, schedule: Q01DX001 (ip), vehicle: saline
[5] = dose: 200.0 mg/kg/injection, schedule: Q04DX002 (ip), vehicle: saline
[6] = dose: 200.0 mg/kg/injection, schedule: Q04DX003 (ip), vehicle: saline
[7] = dose: 400.0 mg/kg/injection, schedule: Q01DX001 (ip), vehicle: saline
[8] = dose: 100.0 mg/kg/injection, schedule: Q01DX009 (ip), vehicle: saline
[9] = dose: 50.0 mg/kg/injection, schedule: Q04DX002 (ip), vehicle: saline
[10] = dose: 100.0 mg/kg/injection, schedule: Q04DX003 (ip), vehicle: saline with Tween-80
[11] = dose: 100.0 mg/kg/injection, schedule: Q01DX009 (ip), vehicle: Klucel (hydroxypropylcellulose) (HPC)
[12] = dose: 200.0 mg/kg/injection, schedule: Q01DX009 (ip), vehicle: Klucel (hydroxypropylcellulose) (HPC)
[13] = dose: 400.0 mg/kg/injection, schedule: Q01DX009 (ip), vehicle: Klucel (hydroxypropylcellulose) (HPC)

Measured: T/C

Cn1cccc(C#N)c1=O (tested in a mixture with another compound)
inactive: [1] 103 % of control and 113 % of control | [2] 97 % of control and 110 % of control | [3] 97 % of control | [4] 106 % of control and 108 % of control | [5] 98 % of control and 113 % of control | [6] 103 % of control and 106 % of control | [7] 103 % of control and 105 % of control | dose: 400.0 mg/kg/injection, schedule: Q04DX002 (ip), vehicle: saline 100 % of control and 92 % of control | dose: 400.0 mg/kg/injection, schedule: Q04DX003 (ip), vehicle: saline 106 % of control and 91 % of control

CCOC(=O)c1cc(C)nc2ccc(Br)cc12
inactive: dose: 100.0 mg/kg/injection, schedule: Q04DX002 (ip), vehicle: saline with Tween-80 97 % of control | dose: 200.0 mg/kg/injection, schedule: Q04DX002 (ip), vehicle: saline with Tween-80 108 % of control | dose: 400.0 mg/kg/injection, schedule: Q04DX002 (ip), vehicle: saline with Tween-80 97 % of control

O=C(Nc1cccc(Cl)c1)Nc1cccc(Br)c1
inactive: dose: 100.0 mg/kg/injection, schedule: Q04DX002 (ip), vehicle: Klucel (hydroxypropylcellulose) (HPC) 96 % of control | dose: 200.0 mg/kg/injection, schedule: Q04DX002 (ip), vehicle: Klucel (hydroxypropylcellulose) (HPC) 88 % of control | dose: 400.0 mg/kg/injection, schedule: Q04DX002 (ip), vehicle: Klucel (hydroxypropylcellulose) (HPC) 118 % of control

CCOC(=O)C(COS(=O)(=O)c1ccc(C)cc1)(COS(=O)(=O)c1ccc(C)cc1)C(=O)OCC
inactive: [8] 92 % of control | dose: 100.0 mg/kg/injection, schedule: Q04DX003 (ip), vehicle: Klucel (hydroxypropylcellulose) (HPC) 97 % of control | dose: 200.0 mg/kg/injection, schedule: Q01DX009 (ip), vehicle: saline 94 % of control | dose: 200.0 mg/kg/injection, schedule: Q04DX003 (ip), vehicle: Klucel (hydroxypropylcellulose) (HPC) 93 % of control | dose: 400.0 mg/kg/injection, schedule: Q04DX003 (ip), vehicle: Klucel (hydroxypropylcellulose) (HPC) 93 % of control

CSC(N)=Nc1cccc(C)c1C
inactive: dose: 50.0 mg/kg/injection, schedule: Q01DX009 (ip), vehicle: saline 100 % of control | [8] 101 % of control | [3] 97 % of control | [6] 97 % of control

CC(=O)OC1CC(n2cc(C)c(=O)[nH]c2=O)OC1COP(=O)(N1CC1)N1CC1 (stereo not given)
inactive: [9] 107 % of control | [5] 112 % of control

CCCCCCCCCCCCCCCNC1=C(C)C(=O)C(NCCCCCCCCCCCCCCC)=C(C)C1=O
inactive: dose: 100.0 mg/kg/injection, schedule: Q01DX001 (ip), vehicle: carboxymethylcellulose (CMC) 93 % of control | dose: 200.0 mg/kg/injection, schedule: Q01DX001 (ip), vehicle: carboxymethylcellulose (CMC) 98 % of control | dose: 400.0 mg/kg/injection, schedule: Q01DX001 (ip), vehicle: carboxymethylcellulose (CMC) 89 % of control

COc1ccc(CN(CC(=O)O)S(C)(=O)=O)cc1
inactive: dose: 100.0 mg/kg/injection, schedule: Q01DX009 (ip), vehicle: other 110 % of control | dose: 100.0 mg/kg/injection, schedule: Q04DX003 (ip), vehicle: other 90 % of control | dose: 200.0 mg/kg/injection, schedule: Q01DX009 (ip), vehicle: other 107 % of control | dose: 200.0 mg/kg/injection, schedule: Q04DX003 (ip), vehicle: other 98 % of control | dose: 400.0 mg/kg/injection, schedule: Q01DX009 (ip), vehicle: other 111 % of control | dose: 400.0 mg/kg/injection, schedule: Q04DX003 (ip), vehicle: other 95 % of control

CC(C)N(CCNc1nc(C(Cl)(Cl)Cl)nc2cc(Cl)ccc12)C(C)C
inactive: [10] 93 % of control | dose: 200.0 mg/kg/injection, schedule: Q04DX003 (ip), vehicle: saline with Tween-80 94 % of control

Oc1ccccc1C=NCC[N-]CCN=Cc1ccccc1O.[Cu+]
inactive: dose: 1.56 mg/kg/injection, schedule: Q01DX009 (ip), vehicle: Klucel (hydroxypropylcellulose) (HPC) 91 % of control | dose: 1.56 mg/kg/injection, schedule: Q04DX003 (ip), vehicle: Klucel (hydroxypropylcellulose) (HPC) 95 % of control | dose: 3.13 mg/kg/injection, schedule: Q01DX009 (ip), vehicle: Klucel (hydroxypropylcellulose) (HPC) 94 % of control | dose: 3.13 mg/kg/injection, schedule: Q04DX003 (ip), vehicle: Klucel (hydroxypropylcellulose) (HPC) 93 % of control | dose: 6.25 mg/kg/injection, schedule: Q01DX009 (ip), vehicle: Klucel (hydroxypropylcellulose) (HPC) 94 % of control | dose: 6.25 mg/kg/injection, schedule: Q04DX003 (ip), vehicle: Klucel (hydroxypropylcellulose) (HPC) 97 % of control

CC(C)N(C(C)C)S(C)(=O)=O
inactive: [3] 92 % of control

Cc1ccc(/C(=N\N=C(N)N)C2CC2)c(C)c1
inactive: dose: 15.0 mg/kg/injection, schedule: Q01DX Z (ip), vehicle: methylcellulose (MC) 89 % of control | dose: 30.0 mg/kg/injection, schedule: Q01DX Z (ip), vehicle: methylcellulose (MC) 98 % of control | dose: 30.0 mg/kg/injection, schedule: Q01DX Z (oral), vehicle: methylcellulose (MC) 103 % of control | dose: 60.0 mg/kg/injection, schedule: Q01DX Z (ip), vehicle: methylcellulose (MC) 95 % of control | dose: 60.0 mg/kg/injection, schedule: Q01DX Z (oral), vehicle: methylcellulose (MC) 97 % of control | dose: 240.0 mg/kg/injection, schedule: Q01DX Z (oral), vehicle: methylcellulose (MC) 86 % of control

O=C(Nc1cccc(F)c1)Nc1cccc([N+](=O)[O-])c1
inactive: [11] 102 % of control | [12] 102 % of control | [13] 97 % of control

Cc1ccc[n+](CCc2c[nH]c3ccccc23)c1
inactive: [10] 90 % of control

CCN(CC)CCOc1cc(C)cc2ccccc12
inactive: dose: 12.5 mg/kg/injection, schedule: Q04DX003 (ip), vehicle: saline 87 % of control | dose: 25.0 mg/kg/injection, schedule: Q04DX003 (ip), vehicle: saline 98 % of control | dose: 50.0 mg/kg/injection, schedule: Q04DX003 (ip), vehicle: saline 101 % of control | [3] 104 % of control

Nc1cccc(OCCOc2ccc([N+](=O)[O-])cc2)c1
inactive: [1] 102 % of control | [4] 104 % of control | [7] 100 % of control

NC(CCl)=NC1CN2CCC1CC2 (stereo not given)
inactive: dose: 25.0 mg/kg/injection, schedule: Q04DX002 (ip), vehicle: saline 101 % of control | [9] 90 % of control | [2] 102 % of control

COC1=C(N)C(=O)C(OC)=C(N)C1=O
inactive: [1] 94 % of control | [4] 97 % of control

CC(C)(C)NC(=O)NCc1ccc(Cl)c(Cl)c1
inactive: [11] 92 % of control | [12] 93 % of control | [13] 98 % of control

CCc1cccc(CC)c1N1C(=O)C=CC1=O
inactive: dose: 1.56 mg/kg/injection, schedule: Q01DX009 (ip), vehicle: other 102 % of control | dose: 3.13 mg/kg/injection, schedule: Q01DX009 (ip), vehicle: other 105 % of control | dose: 3.13 mg/kg/injection, schedule: Q04DX002 (ip), vehicle: other 87 % of control | dose: 6.25 mg/kg/injection, schedule: Q01DX009 (ip), vehicle: other 105 % of control | dose: 6.25 mg/kg/injection, schedule: Q04DX002 (ip), vehicle: other 93 % of control | dose: 12.5 mg/kg/injection, schedule: Q04DX002 (ip), vehicle: other 107 % of control

CCOC(=O)COc1ccc(Cl)cc1
inactive: [11] 97 % of control | [12] 103 % of control | [13] 92 % of control

O=c1[nH]c2c(cc1Br)C(Br)C(Br)C=C2 (stereo not given)
inactive: dose: 100.0 mg/kg/injection, schedule: Q01DX001 (ip), vehicle: other 105 % of control | dose: 200.0 mg/kg/injection, schedule: Q01DX001 (ip), vehicle: other 108 % of control
